Laboratory results taken from the supplement of paper PMC10307832.

Columns and labels:
Assay in all cases: relative viability (nuclei count vs DMSO), 5 days (fraction); higher = more cells survive
[1] = compound: Nc1ccn([C@@H]2O[C@H](CO)[C@@H](O)C2(F)F)c(=O)n1 [Gemcitabine] + CC1(C)CCC(c2ccc(Cl)cc2)=C(CN2CCN(c3ccc(C(=O)NS(=O)(=O)c4ccc(N[C@H](CCN5CCOCC5)CSc5ccccc5)c(S(=O)(=O)C(F)(F)F)c4)cc3)CC2)C1 [Navitoclax] (partner 0.5 µM)
Procedure, shortened: (§1)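 Lung cancer cell lines were pin-tool dosed in 1536-well plates on the day after seeding, with either a lone drug or a fixed anchor-drug dose plus five library-drug doses (not always all listed) in √10 steps. Nuclei were counted on 4× images after 5 days. Relative viability is the ratio of treated-well to vehicle-well nuclei counts, with each value a median of duplicate plates.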

[2] = compound: Nc1ccn([C@@H]2O[C@H](CO)[C@@H](O)C2(F)F)c(=O)n1 [Gemcitabine] + C[C@@H](Oc1cc(-c2cnn(C3CCNCC3)c2)cnc1N)c1c(Cl)ccc(F)c1Cl [Crizotinib] (partner 1 µM)
Procedure, shortened: as §1

[3] = compound: Nc1ccn([C@@H]2O[C@H](CO)[C@@H](O)C2(F)F)c(=O)n1 [Gemcitabine] + Cc1cc(Nc2cc(N3CCN(C)CC3)nc(Sc3ccc(NC(=O)C4CC4)cc3)n2)n[nH]1 [Tozasertib] (partner 0.1 µM)
Procedure, shortened: as §1

[4] = compound: Nc1ccn([C@@H]2O[C@H](CO)[C@@H](O)C2(F)F)c(=O)n1 [Gemcitabine] + O=C(CCCCCCC(=O)Nc1ccccc1)NO [Vorinostat] (partner 1 µM)
Procedure, shortened: as §1

| Cell Line | relative viability ([1]; first compound 0.001 µM) | relative viability ([1]; first compound 0.003162 µM) | relative viability ([1]; first compound 0.01 µM) | relative viability ([1]; first compound 0.03162 µM) | relative viability ([1]; first compound 0.1 µM) | relative viability ([2]; first compound 0.001 µM) | relative viability ([2]; first compound 0.003162 µM) | relative viability ([2]; first compound 0.01 µM) | relative viability ([2]; first compound 0.03162 µM) | relative viability ([2]; first compound 0.1 µM) | relative viability ([3]; first compound 0.001 µM) | relative viability ([3]; first compound 0.003162 µM) | relative viability ([3]; first compound 0.01 µM) | relative viability ([3]; first compound 0.03162 µM) | relative viability ([3]; first compound 0.1 µM) | relative viability ([4]; first compound 0.001 µM) | relative viability ([4]; first compound 0.003162 µM) | relative viability ([4]; first compound 0.01 µM) | relative viability ([4]; first compound 0.03162 µM) | relative viability ([4]; first compound 0.1 µM) |
| --- | --- | --- | --- | --- | --- | --- | --- | --- | --- | --- | --- | --- | --- | --- | --- | --- | --- | --- | --- | --- |
| SK-MES-1 | 0.929 | 0.723 | 0.158 | 0.0905 | 0.077 | 0.923 | 0.809 | 0.221 | 0.179 | 0.164 | 0.691 | 0.305 | 0.197 | 0.147 | 0.126 | 0.839 | 0.254 | 0.181 | 0.185 | 0.178 |
| NCI-H1355 | 0.937 | 0.461 | 0.168 | 0.109 | 0.112 | 0.996 | 0.706 | 0.193 | 0.158 | 0.141 | 0.508 | 0.393 | 0.189 | 0.18 | 0.169 | 0.632 | 0.473 | 0.274 | 0.166 | 0.146 |
| SW 1573 | 1.18 | 0.986 | 0.0907 | 0.0747 | 0.0361 | 0.997 | 0.728 | 0.202 | 0.12 | 0.0565 | 0.189 | 0.165 | 0.0964 | 0.0589 | 0.0466 | 0.75 | 0.591 | 0.122 | 0.0661 | 0.0393 |
| NCI-H2347 | 0.86 | 0.64 | 0.639 | 0.334 | 0.206 | 0.756 | 0.704 | 0.623 | 0.452 | 0.477 | 0.563 | 0.547 | 0.484 | 0.29 | 0.259 | 0.584 | 0.453 | 0.507 | 0.327 | 0.281 |
| LCLC-97TM1 | 0.379 | 0.182 | 0.0922 | 0.0774 | 0.106 | 0.297 | 0.179 | 0.0935 | 0.0797 | 0.12 | 0.253 | 0.244 | 0.156 | 0.123 | 0.134 | 0.51 | 0.314 | 0.149 | 0.0661 | 0.0642 |
| EMC-BAC-2 | 1.21 | 1.17 | 1.11 | 0.147 | 0.136 | 0.778 | 0.768 | 0.594 | 0.14 | 0.149 | 0.269 | 0.32 | 0.26 | 0.176 | 0.155 | 0.343 | 0.402 | 0.234 | 0.148 | 0.198 |
| NCI-H1975 | 1.07 | 1.14 | 0.463 | 0.228 | 0.179 | 0.996 | 1.01 | 0.48 | 0.201 | 0.16 | 0.892 | 0.561 | 0.256 | 0.132 | 0.0954 | 0.741 | 0.714 | 0.372 | 0.18 | 0.186 |
| BEN | 0.0578 | 0.0698 | 0.0605 | 0.0528 | 0.0444 | 0.874 | 0.563 | 0.139 | 0.113 | 0.09 | 0.56 | 0.559 | 0.419 | 0.24 | 0.175 | 0.653 | 0.55 | 0.309 | 0.253 | 0.331 |
